Laboratory results from ChEMBL document CHEMBL1944619, “QSAR studies for prediction of cross-β sheet aggregate binding affinity and selectivity” (Bioorg Med Chem, 2012).

Assay: Displacement of thioflavin-T from amyloid beta (1 to 40) aggregates by thioflavin-T fluorescent dye assay

Point of comparison: `CN(C)c1ccc(/C=C/c2sc3ccccc3[n+]2Cc2ccccc2-c2ccccc2)cc1`, IC50 100 nM. Against it:
- CC[n+]1c(/C=C/c2ccc(N(C)C)cc2)sc2ccccc21 — 4-fold higher, 400 nM
- CCCCCCC[n+]1c(/C=C/c2ccc(N(CC)CC)cc2)sc2ccccc21 — within 1.5-fold, 140 nM
- CN(C)c1ccc(/C=C/c2sc3ccccc3[n+]2CCCCOc2ccccc2)cc1 — 1.7-fold higher, 170 nM
- CN(C)c1ccc(/N=N/c2nc3ccccc3s2)cc1 — 220-fold higher, 22000 nM
- CCCCCCC[n+]1c(/C=C/c2ccc(N(C)C)c3ccccc23)sc2ccccc21 — 1.6-fold higher, 160 nM
- CN(C)c1ccc(/C=C/c2sc3ccccc3[n+]2Cc2ccc3ccccc3c2)cc1 — within 1.5-fold, 120 nM
- CN(C)c1ccc(/C=C/c2sc3c(Cc4ccccc4)c(Cc4ccccc4)ccc3[n+]2C)cc1 — 2.1-fold higher, 210 nM
- CN(C)c1ccc(/C=C/c2sc3ccc(F)cc3[n+]2C)cc1 — 10-fold higher, 1000 nM
- Cc1ccc2sc(/C=C/c3ccc(N(C)C)cc3)[n+](C)c2c1 — 4-fold higher, 400 nM
- CCCCCCC[n+]1c(/C=C/c2ccc(N(C)C)cc2)sc2ccccc21 — within 1.5-fold, 93 nM
- CN(C)c1ccc(/C=C/c2sc3ccccc3[n+]2CCCC2CCCCC2)cc1 — within 1.5-fold, 120 nM
- CN(C)c1ccc(/C=C/c2nc3ccccc3s2)cc1 — higher, > 100000 nM
- CN(C)c1ccc(/C=C/c2sc3ccccc3[n+]2C)cc1 — 10-fold higher, 1000 nM
- CN(C)c1ccc(/C=C/c2sc3ccccc3[n+]2C/C=C/c2ccccc2)cc1 — the same, 100 nM
- Cc1ccc2c(c1)sc(/C=C/c1ccc(N(C)C)cc1)[n+]2C — 1.8-fold higher, 180 nM
- COc1ccc2c(c1)sc(/N=N/c1ccc(N(C)C)cc1)[n+]2C — 4.1-fold higher, 410 nM
- CN(C)c1ccc(/C=C/c2sc3cc([N+](=O)[O-])ccc3[n+]2C)cc1 — 10-fold higher, 1000 nM
- CN(C)c1ccc(/C=C/c2sc3ccccc3[n+]2Cc2cccc(OC(=O)c3ccccc3)c2)cc1 — 2.3-fold higher, 230 nM
- COc1ccc2c(c1)sc(/C=C/c1ccc(N(C)C)c3ccccc13)[n+]2C — 4.3-fold higher, 430 nM
- CN(C)c1ccc(/C=C/c2sc3ccc(F)cc3[n+]2Cc2ccccc2)cc1 — 1.7-fold higher, 170 nM
- Nc1ccc(/N=N/c2nc3ccccc3s2)c2ccccc12 — within 1.5-fold, 120 nM
- CN(C)c1ccc(/C=C/c2sc3ccccc3[n+]2Cc2ccc(-c3ccccc3)cc2)cc1 — 2.4-fold higher, 240 nM
- CCCCCCC[n+]1c(/C=C/c2ccc(N(CCCC)CCCC)cc2)sc2ccccc21 — 6-fold higher, 600 nM
- CN(C)c1ccc(/C=C/c2sc3ccc(Cc4ccccc4)c(Cc4ccccc4)c3[n+]2C)cc1 — 2.1-fold higher, 210 nM
- CN(C)c1ccc(/C=C/c2sc3ccccc3[n+]2CCCC(c2ccccc2)c2ccccc2)cc1 — 4.6-fold higher, 460 nM
- CCCC[n+]1c(/C=C/c2ccc(N(C)C)cc2)sc2ccccc21 — 1.6-fold higher, 160 nM
- CN(C)c1ccc(/C=C/c2sc3ccccc3[n+]2Cc2cccc(Oc3ccccc3)c2)cc1 — within 1.5-fold, 120 nM
- CN(C)c1ccc(/C=C/c2sc3ccccc3[n+]2CCCCCc2ccccc2)cc1 — 1.7-fold higher, 170 nM
- CN(C)c1ccc(/C=C/c2sc3ccccc3[n+]2CCCCCOc2ccccc2)cc1 — 1.7-fold higher, 170 nM
- CN(C)c1ccc(/C=C/c2sc3ccccc3[n+]2Cc2ccc(F)cc2)cc1 — within 1.5-fold, 120 nM
- CN(C)c1ccc(/C=C/c2sc3ccccc3[n+]2CCCc2ccccc2)cc1 — 2-fold higher, 200 nM
- CN(C)c1ccc(/C=C/c2nc3cc(Cl)ccc3s2)cc1 — higher, > 100000 nM
- Cc1ccc2c(c1)sc(/C=C/c1ccc(N(C)C)cc1)[n+]2Cc1ccccc1 — within 1.5-fold, 130 nM
- CCCCCCC[n+]1c(/C=C/c2ccc(N(C)C)cc2)sc2cc(OC)ccc21 — within 1.5-fold, 140 nM
- COc1ccc2nc(/N=N/c3ccc(N(C)C)c4ccccc34)sc2c1 — 25-fold higher, 2500 nM
- CN(C)c1ccc(/C=C/c2nc3ccc(N(C)C)cc3s2)cc1 — higher, > 100000 nM
- CN(C)c1ccc(/C=C/c2sc3cc(Cc4ccccc4)c(Cc4ccccc4)cc3[n+]2C)cc1 — within 1.5-fold, 120 nM
- COc1ccc2nc(/N=N/c3ccc(N(C)C)cc3)sc2c1 — 32-fold higher, 3200 nM
- CN(C)c1ccc(/C=C/c2sc3ccccc3[n+]2CCCOCc2ccccc2)cc1 — within 1.5-fold, 140 nM
- CCCCCCC[n+]1c(/C=C/c2ccc(-n3cccc3)cc2)sc2ccccc21 — 1.6-fold higher, 160 nM
- CN(C)c1ccc(/C=C/c2sc3ccccc3[n+]2Cc2ccccc2)cc1 — within 1.5-fold, 110 nM
- CN(C)c1ccc(/N=N/c2sc3ccccc3[n+]2C)cc1 — 13-fold higher, 1300 nM
- CN(C)c1ccc(/C=C/c2sc3ccc(Cl)cc3[n+]2C)cc1 — 4.3-fold higher, 430 nM
- COc1ccc2c(c1)sc(/C=C/c1ccc(N(C)C)cc1)[n+]2C — 3-fold higher, 300 nM
